Source: US20200405666A9, “TREATMENT OF SYMPTOMS ASSOCIATED WITH FEMALE GASTROPARESIS” (priority 2011, published 2020)

Tested on: symptoms of diabetic gastroparesis
Assay: Phase 2 randomized, double-blind, placebo-controlled study METO-IN-002 of metoclopramide nasal spray: symptom scores (mGCSI-DD, GCSI-DD, PAGI-SYM, other endpoints)
Type: in vivo, human
Parameters: key to Stomach Fullness / Early Satiety / Feeling Full / Loss of Appetite / Bloating / Stomach Larger / Upper Abdominal Pain / Upper Abdominal Discomfort / mGCSI-DD (primary endpoint) / Nausea / Retching / Vomiting / Sheehan Disability Scales / Investigator Assessment of Overall Gastroparesis Severity / Subject Assessment of Overall Gastroparesis Severity / Investigator Assessment of Overall Treatment Effect / Subject Assessment of Overall Treatment Effect / Days w/o Vomiting / Days w/o Nausea / Days w/o Vomiting or Nausea / Days w/o Upper Abdominal Pain or Upper Abdominal Discomfort / Nausea Response by Response Threshold / GCSI-DD / Days w/o Vomiting or Retching &, No Use of Rescue Medication / Nausea Responder Analysis / Overall Severity of Gastroparesis Symptoms - Subject / PAGI-SYM Questionnaire / Nausea/Vomiting (listed under PAGI-SYM Questionnaire) / Bloating (listed under PAGI-SYM Questionnaire) / Upper Abdominal Pain/Discomfort (listed under PAGI-SYM Questionnaire) / Early Satiety (listed under PAGI-SYM Questionnaire): A=Favors Active; P=Favors Placebo
Conditions: for mGCSI-DD (primary endpoint) / Bloating / Bloating (listed under PAGI-SYM Questionnaire) / Days w/o Nausea / Days w/o Upper Abdominal Pain or Upper Abdominal Discomfort / Days w/o Vomiting / Days w/o Vomiting or Nausea / Days w/o Vomiting or Retching &, No Use of Rescue Medication / Early Satiety / Early Satiety (listed under PAGI-SYM Questionnaire) / Feeling Full / GCSI-DD / Investigator Assessment of Overall Gastroparesis Severity / Investigator Assessment of Overall Treatment Effect / Loss of Appetite / Nausea / Nausea Responder Analysis / Nausea Response by Response Threshold / Nausea/Vomiting (listed under PAGI-SYM Questionnaire) / Overall Severity of Gastroparesis Symptoms - Subject / PAGI-SYM Questionnaire / Retching / Sheehan Disability Scales / Stomach Fullness / Stomach Larger / Subject Assessment of Overall Gastroparesis Severity / Subject Assessment of Overall Treatment Effect / Upper Abdominal Discomfort / Upper Abdominal Pain / Upper Abdominal Pain/Discomfort (listed under PAGI-SYM Questionnaire) / Vomiting: Week 4, vs placebo
Protocol: Example 1: A Multicenter, Randomized, Double-Blind, Placebo-Controlled, Parallel Group, Dose-Ranging Clinical Study to Evaluate the Efficacy and Safety of Metoclopramide Nasal Spray Solution in Diabetic Subjects with Gastroparesis
The objectives of this study were to evaluate the safety and the effectiveness of two doses of metoclopramide nasal spray solution, 10 mg and 14 mg, compared to placebo in reducing the symptoms of diabetic gastroparesis and to assess the plasma concentrations of two doses of metoclopramide nasal spray in subjects with diabetic gastroparesis following a single dose and at steady state. The aforementioned dosages for the treatment and control of gastroparesis were administered before meals and/or before bed time. Subjects who met the entry criteria after the Washout Period (Day −7 to Day −1) were randomized using an IVRS, to metoclopramide nasal spray 10 mg, 14 mg, or placebo, in roughly equal numbers (approximately 1:1:1) using a predetermined randomization schedule employing permuted blocks. Randomization was preformed centrally.
Metoclopramide nasal spray solution, 200 mg/mL base (as monohydrochloride monohydrate) is a clear colorless to pale-yellow aqueous solution manufactured for Evoke Pharma. The metoclopramide nasal spray was packaged in a 10 mL amber glass vial mounted with a metered nasal spray pump. The metered dose vial delivered a 50 μL or 70 μL spray (10 mg or 14 mg of metoclopramide base respectively) with each actuation. One 10 mL vial contained sufficient metoclopramide nasal spray to deliver 120 doses of 10 mg or 14 mg.
A vehicle control was used as the placebo for metoclopramide nasal spray solution. The placebo spray was packaged in a 10 mL amber glass vial mounted with a metered nasal spray pump. The metered dose vial delivered a 50 μL spray with each actuation. One 10 mL vial contained sufficient placebo to deliver 120 doses. The delivery of either a 50 μL or 70 μL spray is indistinguishable to the subject or study staff.
A 7-day Washout Period preceded randomization. During this time, and for the duration of the study, subjects were asked to discontinue use of all medications that are known to ameliorate or exacerbate symptoms associated with diabetic gastroparesis. Subjects were trained on the use of an interactive voice response system (IVRS) to record the severity of nine gastroparesis symptoms of the GCSI-DD and additional symptoms such as: severity of abdominal pain and abdominal discomfort, number of hours of nausea, number of episodes of vomiting, and overall severity of gastroparesis symptoms in a daily diary. The IVRS was used during the treatment period for self-reported assessments. Subjects completed these diary assessments via the IVRS each evening.
Subjects with a mean GCSI-DD total score of <2.0 or >4.0 during the 7-day Washout Period were excluded from the study.
At the Randomization Visit (Day 0), the Patient Assessment of Upper Gastrointestinal Disorders Symptoms (PAGI-SYM) Questionnaire, and disability questionnaires were administered to the subject and the Investigator and subject assessed overall gastroparesis symptom severity (OGS) prior to taking study drug. Subjects began taking the study drug at the clinical site with a single dose on Day 0. The subjects returned to the clinic for safety and efficacy evaluations on Visits 4, 5, 6, and 7 (Days 7, 14, 21, and 28).
At each scheduled study visit to the clinical study site, the IVRS daily diary compliance was reviewed. In addition, at Visit 5 (Day 14), the PAGI-SYM Questionnaire was administered to the subject and the Investigator and subject assessed OGS severity. At the Final Visit (Day 28) subjects took their last dose of study drug at the clinical site and returned their vial of unused/remaining study drug. The subject completed the PAGI-SYM, and disability questionnaires. The Investigator and subject assessed OGS and overall treatment effect (OTE). […]

[1] = males, 10 mg IN four times daily
[2] = males, 10 mg IN four times daily, listed as Metoclopramide
[3] = males, 14 mg IN four times daily

CCN(CC)CCNC(=O)c1cc(Cl)c(N)cc1OC [metoclopramide, -amino-5-chloro-N-(2-(diethylamino)ethyl)-2-methoxybenzamide]
mGCSI-DD (primary endpoint) (females, 14 mg IN four times daily): A (p < 0.05)
Mean mGCSI-DD total score at Week 4 (females, 14 mg IN four times daily, listed as Metoclopramide): 1.7
Difference of Least Square Means, mGCSI-DD change from Baseline to Week 4 (females, 14 mg IN vs Metoclopramide 10 mg): −0.00
Difference of Least Square Means, mGCSI-DD change from Baseline to Week 4 (females, 14 mg IN vs placebo): −0.38
Symptoms that showed a positive trend (male subjects, 11 symptoms collected): 1 of 11
Statistically significant improvement in mGCSI-DD score (in words) (males, 10 mg IN and 14 mg IN arms, Baseline to Week 4): did not experience significant improvement
Mean Change from Baseline to Week 4 in mGCSI-DD [1]: −1.2 (−1.2)
Mean mGCSI-DD total score at Week 4 [1]: 1.6 (1.6)
Bloating [1]: P
Bloating (listed under PAGI-SYM Questionnaire) [1]: P
Days w/o Nausea [1]: P
Days w/o Upper Abdominal Pain or Upper Abdominal Discomfort [1]: P
Days w/o Vomiting [1]: P
Days w/o Vomiting or Nausea [1]: P
Days w/o Vomiting or Retching &, No Use of Rescue Medication [1]: A
Early Satiety [1]: P
Early Satiety (listed under PAGI-SYM Questionnaire) [1]: P
Feeling Full [1]: P
GCSI-DD [1]: P
Investigator Assessment of Overall Gastroparesis Severity [1]: P
Investigator Assessment of Overall Treatment Effect [1]: A
Loss of Appetite [1]: P
Nausea [1]: P
Nausea Responder Analysis [1]: P
Nausea Response by Response Threshold [1]: P
Nausea/Vomiting (listed under PAGI-SYM Questionnaire) [1]: P
Overall Severity of Gastroparesis Symptoms - Subject [1]: A
PAGI-SYM Questionnaire [1]: P
Retching [1]: P
Sheehan Disability Scales [1]: A
Stomach Fullness [1]: P
Stomach Larger [1]: P
Subject Assessment of Overall Gastroparesis Severity [1]: P
Subject Assessment of Overall Treatment Effect [1]: A
Upper Abdominal Discomfort [1]: P
Upper Abdominal Pain [1]: P
Upper Abdominal Pain/Discomfort (listed under PAGI-SYM Questionnaire) [1]: P
Vomiting [1]: A
mGCSI-DD (primary endpoint) [1]: P
Mean Change from Baseline to Week 4 in mGCSI-DD [2]: −1.2
Mean mGCSI-DD total score at Week 4 [2]: 1.6
Difference of Least Square Means, mGCSI-DD change from Baseline to Week 4 (males, 10 mg IN vs placebo): 0.18
Mean Change from Baseline to Week 4 in mGCSI-DD [3]: −0.9
Mean mGCSI-DD total score at Week 4 [3]: 1.7 (1.7)
Bloating [3]: P
Bloating (listed under PAGI-SYM Questionnaire) [3]: P (p < 0.05)
Days w/o Nausea [3]: P
Days w/o Upper Abdominal Pain or Upper Abdominal Discomfort [3]: P (p < 0.05)
Days w/o Vomiting [3]: P
Days w/o Vomiting or Nausea [3]: P
Days w/o Vomiting or Retching &, No Use of Rescue Medication [3]: A
Early Satiety [3]: P (p < 0.05) and P
Early Satiety (listed under PAGI-SYM Questionnaire) [3]: P (p < 0.05)
Feeling Full [3]: P
GCSI-DD [3]: P
Investigator Assessment of Overall Gastroparesis Severity [3]: P
Investigator Assessment of Overall Treatment Effect [3]: P
Loss of Appetite [3]: P (p < 0.05)
Nausea [3]: P
Nausea Responder Analysis [3]: P
Nausea Response by Response Threshold [3]: P
Nausea/Vomiting (listed under PAGI-SYM Questionnaire) [3]: P
Overall Severity of Gastroparesis Symptoms - Subject [3]: A
PAGI-SYM Questionnaire [3]: P
Retching [3]: P
Sheehan Disability Scales [3]: A
Stomach Fullness [3]: P
Stomach Larger [3]: P (p < 0.05)
Subject Assessment of Overall Gastroparesis Severity [3]: P
Subject Assessment of Overall Treatment Effect [3]: P
Upper Abdominal Discomfort [3]: P
Upper Abdominal Pain [3]: P
Upper Abdominal Pain/Discomfort (listed under PAGI-SYM Questionnaire) [3]: P
Vomiting [3]: A
mGCSI-DD (primary endpoint) [3]: P
Mean mGCSI-DD total score at Week 4 (males, 14 mg IN four times daily, listed as Metoclopramide): 1.7
Difference of Least Square Means, mGCSI-DD change from Baseline to Week 4 (males, 14 mg IN vs Metoclopramide 10 mg): 0.14
Difference of Least Square Means, mGCSI-DD change from Baseline to Week 4 (males, 14 mg IN vs placebo): 0.32
